Experimental data from patent US20070078096A1, “Buffered drug formulations for transdermal electrotransport delivery” (priority 1997, published 2007).
Read-outs that look alike come from different tables or passages of the source. Non-standard residues stand in square brackets, D forms with d. Residues, ends and D or L forms follow the SMILES beside them. Cit = NC(=O)NCCC[C@H](N)C(=O)O; Orn = NCCC[C@H](N)C(=O)O

Test: pKa, pI and charge distribution of buffers
Conditions: for % salt: fraction of dipeptide carrying a net charge in aqueous solution at pH equal to pI
Description: At the pI, three species coexist.
In an electric field these negative species move in the opposite direction of their positive associated counterions.
Choice of the dipeptide buffer will be on a case-by-case basis depending on the drug compound and the desired level of pH control and conductivity of the formulation.

Molecule | pka A | pI (Table 2) | % salt [%] | pI | pka B | species presenting a net charge (salt form) at the pI (at pI)
C[C@@H](O)[C@H](N)C(=O)N[C@@H](Cc1cnc[nH]1)C(=O)O [Thr-His] (H-Thr-His-OH) | 2.42 | 7.15 | 39 | – | – | –
NC(N)=NCCC[C@H](NC(=O)[C@@H](N)Cc1ccc(O)cc1)C(=O)O [Tyr-Arg] | – | 8.40 | 17 | – | – | –
His-Gly-Gly | – | – | – | 6.9 | – | –
N[C@@H](Cc1ccccc1)C(=O)N[C@@H](Cc1cnc[nH]1)C(=O)O [Phe-His] (H-Phe-His-OH) | 2.42 | 7.20 | 36 | – | – | –
NCCC[C@H](NC(=O)[C@@H](N)Cc1c[nH]cn1)C(=O)O [His-Ornithine] (H-His-[Orn]-OH) | 2.82 | 9.40 | 5 | – | – | –
O=C(O)[C@H](Cc1c[nH]cn1)NC(=O)[C@@H]1CC(O)CN1 (stereo partly shown) [Hydroxyproline-His] | 2.42 | 7.45 | 25 | – | – | –
N[C@@H](Cc1cnc[nH]1)C(=O)N1CCC[C@H]1C(=O)O [His-Pro] | 2.62 | 6.95 | 22 | – | – | –
N[C@@H](Cc1cnc[nH]1)C(=O)N[C@@H](CO)C(=O)O [His-Ser] (H-His-Ser-OH) | 2.65 | 6.95 | 22 | – | – | –
NC(=O)C[C@H](N)C(=O)N[C@@H](Cc1cnc[nH]1)C(=O)O [Asn-His] (H-Asn-His-OH) | 2.42 | 7.00 | 44 | – | – | –
NC(=O)NCCC[C@H](N)C(=O)N[C@@H](Cc1c[nH]cn1)C(=O)O [Citrulline-His] (H-[Cit]-His-OH) | 2.42 | 7.30 | 32 | – | – | –
NC(=O)CC[C@H](NC(=O)[C@@H](N)Cc1cnc[nH]1)C(=O)O [His-Gln] (H-His-Gln-OH) | 2.93 | 6.95 | 22 | – | – | –
N[C@@H](Cc1cnc[nH]1)C(=O)N[C@@H](Cc1ccc(O)cc1)C(=O)O [His-Tyr] (H-His-Tyr-OH) | – | 6.95 | 22 | – | – | –
NCCCC[C@H](N)C(=O)N[C@@H](Cc1cnc[nH]1)C(=O)O [Lys-His] | 2.42 | 9.50 | 5 | – | – | –
CSCC[C@H](NC(=O)[C@@H](N)Cc1cnc[nH]1)C(=O)O [His-Met] (H-His-Met-OH) | 2.89 | 6.95 | 22 | – | – | –
N[C@@H](Cc1c[nH]c2ccccc12)C(=O)N[C@@H](Cc1cnc[nH]1)C(=O)O [Trp-His] (H-Trp-His-OH) | 2.42 | 7.30 | 32 | – | – | –
N[C@@H](CC(=O)O)C(=O)N[C@@H](Cc1cnc[nH]1)C(=O)O [Asp-His] (H-Asp-His-OH) | – | 4.90 | 3 | – | – | –
NCC(=O)N[C@@H](CC(=O)O)C(=O)O [Gly-Asp] (H-Gly-Asp-OH) | – | 3.60 | 23 | – | 8.60 | –
O=C(O)C(Cc1cnc[nH]1)NC(=O)C1CCCN1 (stereo not shown) [Pro-His] | 2.42 | 7.90 | 11 | – | – | –
CSCC[C@H](N)C(=O)N[C@@H](Cc1cnc[nH]1)C(=O)O [Met-His] (H-Met-His-OH) | 2.42 | 7.35 | 30 | – | – | –
CC(C)C[C@H](N)C(=O)N[C@@H](Cc1cnc[nH]1)C(=O)O [Leu-His] (H-Leu-His-OH) | 2.42 | 7.50 | 24 | – | – | –
NC(N)=NCCC[C@H](N)C(=O)N[C@@H](CCC(=O)O)C(=O)O [Arg-Glu] (H-Arg-Glu-OH) | – | 6.06 | 3 | – | – | –
NC(=O)C[C@H](NC(=O)[C@@H](N)Cc1cnc[nH]1)C(=O)O [His-Asn] (H-His-Asn-OH) | 2.62 | 6.95 | 22 | – | – | –
NCCCC[C@H](NC(=O)[C@@H](N)Cc1cnc[nH]1)C(=O)O [His-Lys] (H-His-Lys-OH) | 3.05 | 9.40 | 5 | – | – | –
NC[C@H](O)CC[C@H](N)C(=O)N[C@@H](Cc1c[nH]cn1)C(=O)O [Hydroxylysine-His] | 2.42 | 8.60 | 13 | – | – | –
N[C@@H](Cc1cnc[nH]1)C(=O)N[C@@H](Cc1c[nH]c2ccccc12)C(=O)O [His-Trp] | 3.07 | 6.95 | 22 | – | – | –
Gly-Gly-Gly-Gly-His (GGGGH; printed: Gly-Gly-Gly-Gly-His) | – | – | – | 7.55 | – | –

Molecule | pka A | pI (Table 2) | % salt [%] | pI | pka B | species presenting a net charge (salt form) at the pI (at pI)
N[C@@H](CO)C(=O)N[C@@H](Cc1cnc[nH]1)C(=O)O [Ser-His] (H-Ser-His-OH) | 2.42 | 7.20 | 36 | – | – | –
NCCC(=O)N[C@@H](Cc1c[nH]cn1)C(=O)O [Beta-Alanylhistidine] | – | 7.70 | 16 | – | – | –
CC(C)C[C@H](NC(=O)[C@@H](N)Cc1cnc[nH]1)C(=O)O [His-Leu] (H-His-Leu-OH) | 3.10 | 6.95 | 22 | – | – | –
CC[C@H](C)[C@H](N)C(=O)N[C@@H](Cc1cnc[nH]1)C(=O)O [Isoleucine-His] (H-Ile-His-OH) | 2.42 | 7.44 | 25 | – | – | –
NCCC[C@H](N)C(=O)N[C@@H](Cc1c[nH]cn1)C(=O)O [Ornithine-His] | 2.42 | 9.20 | 3 | – | – | –
N[C@@H](CCC(=O)O)C(=O)N[C@@H](Cc1cnc[nH]1)C(=O)O [Glu-His] (H-Glu-His-OH) | – | 5.20 | 5 | 5.2 | – | about 5%
Gly-Gly-Gly-His (GGGH; printed: Gly-Gly-Gly-His) | – | – | – | 7.5 | – | –
C[C@H](N)C(=O)N[C@@H](Cc1cnc[nH]1)C(=O)O [Ala-His] (H-Ala-His-OH) | 2.42 | 7.55 | 22 | – | – | –
NC(N)=NCCC[C@H](N)C(=O)N[C@@H](CC(=O)O)C(=O)O [Arg-Asp] (H-Arg-Asp-OH) | – | 6.08 | 2 | – | – | –
NC(=O)CC[C@H](N)C(=O)N[C@@H](Cc1cnc[nH]1)C(=O)O [GIn-His] (H-Gln-His-OH) | 2.42 | 7.20 | 36 | – | – | –
CC(C)[C@H](NC(=O)[C@@H](N)Cc1cnc[nH]1)C(=O)O [His-Val] (H-His-Val-OH) | 3.18 | 6.95 | 22 | – | – | –
N[C@@H](Cc1cnc[nH]1)C(=O)N[C@@H](Cc1ccccc1)C(=O)O [His-Phe] (H-His-Phe-OH) | 2.88 | 6.95 | 22 | – | – | –
NCC(O)CC[C@H](NC(=O)[C@@H](N)Cc1c[nH]cn1)C(=O)O (stereo partly shown) [His-Hydroxylysine] | 3.05 | 8.75 | 17 | – | – | –
NCCC(=O)N[C@@H](Cc1cnc[nH]1)C(=O)O [Carnosine] | – | 8.17 | 8 | – | – | –
N[C@@H](Cc1c[nH]cn1)C(=O)N1CC(O)C[C@H]1C(=O)O (stereo partly shown) [His-Hydroxyproline] | 2.42 | 6.95 | 22 | – | – | –
N[C@@H](CC(=O)O)C(=O)N[C@@H](CC(=O)O)C(=O)O [Asp-Asp] (H-Asp-Asp-OH) | – | 3.05 | 43 | – | 8.26 | –
NC(=O)NCCC[C@H](NC(=O)[C@@H](N)Cc1c[nH]cn1)C(=O)O [His-Citrulline] (H-His-[Cit]-OH) | 3.05 | 6.95 | 22 | – | – | –
NC(N)=NCCC[C@H](NC(=O)[C@@H](N)CCC(=O)O)C(=O)O [Glu-Arg] (H-Glu-Arg-OH) | – | 6.00 | 2 | – | – | –
C[C@@H](O)[C@H](NC(=O)[C@@H](N)Cc1cnc[nH]1)C(=O)O [His-Thr] (H-His-Thr-OH) | 2.98 | 6.95 | 22 | – | – | –
His-Gly-Gly-Gly-Gly (HGGGG; printed: His-Gly-Gly-Gly-Gly) | – | – | – | 6.0 | – | –
N[C@@H](Cc1cnc[nH]1)C(=O)N[C@@H](Cc1cnc[nH]1)C(=O)O [His-His] | 2.25 | 7.40 | 32 | – | – | –
Cn1cncc1C[C@H](NC(=O)CCN)C(=O)O [Anserine] | 2.64 | 8.27 | 10 | – | – | –
CC[C@H](C)[C@H](NC(=O)[C@@H](N)Cc1cnc[nH]1)C(=O)O [His-Isoleucine] (H-His-Ile-OH) | 3.13 | 6.95 | 22 | – | – | –
Gly-Gly-His | – | – | – | 7.5 | – | –
N[C@@H](Cc1ccc(O)cc1)C(=O)N[C@@H](Cc1cnc[nH]1)C(=O)O [Tyr-His] (H-Tyr-His-OH) | – | 7.15 | 39 | – | – | –
His-Gly-Gly-Gly (HGGG; printed: His-Gly-Gly-Gly) | – | – | – | 6.9 | – | –
